Results: patent US20240032530A1, “BLOOD SAMPLER CONTAINING ANTI-PLATELET AGENT AND WATER-SOLUBLE MATRIX MATERIAL” (Radiometer Medical ApS, priority 2020, published 2024)

System: platelets (PLT) in whole blood
Assay: Whole blood stability: PLT concentration on Sysmex XN-9000 hematology analyzer
Type: cell-based, healthy volunteers
Settings: FIG. 8; formulated with PVP (Mw 10′000)/Tris matrix, 1 μM in whole blood, with Hep brick or LiHep tube, analyzed within 6 hours, three donors
Protocol: For storage stability and whole blood stabilization testing, the tubes were sprayed with 10 μL each of the mixture (D) using an ExactaCoat from Sono-Tek for ultrasonic spraying. And tubes were evacuated after spraying in order to allow filling of 3 mL whole blood during blood drawing via venipuncture.
Tubes with sprayed anti-platelet agents Iloprost, Beraprost sodium and Treprostinil each formulated with a PVP (Mw 10′000)/Tris matrix were prepared by ultrasonic spraying as described above. Spraying was done into either 1) tubes with no additive and after spraying, a heparinized filter paper brick (Hep brick) was added to the tube; or 2) spraying was conducted into commercial Lithium Heparin tubes (LiHep). The formulations were prepared to achieve a final anti-platelet agent concentration of 1 μM in whole blood. After preparation, tubes were evacuated and lids closed in order to allow drawing of correct whole blood volume during venipuncture. Blood from three different healthy volunteers were drawn into prepared blood collection tubes and reference standard EDTA and Lithium Heparin (LiHep) tubes. Whole blood samples were analyzed with a Sysmex XN-9000 hematology analyzer within 6 hours after blood sample drawing.
The Y-axis is the normalized PLT concentration relative to the EDTA sample.

SMILES	anti-platelet activity (normalized PLT concentration relative to the EDTA sample)
CCCCC[C@H](O)CC[C@@H]1[C@H]2Cc3cccc(OCC(=O)O)c3C[C@H]2C[C@H]1O [Treprostinil]	as high as that of EDTA
CC#CCC(C)[C@H](O)/C=C/[C@@H]1[C@H]2c3cccc(CCCC(=O)O)c3O[C@H]2C[C@H]1O (mixture of isomers) [Beraprost, Beraprost sodium]	as high as that of EDTA
CC#CCC(C)[C@H](O)/C=C/[C@@H]1[C@H]2C/C(=C/CCCC(=O)O)C[C@H]2C[C@H]1O (stereo partly drawn) [Iloprost, iloprost]	as high as that of EDTA
